Where two headings read alike, the source gives them in different places.
Legend:
[1] = target: recombinant ROCK2 (amino acids 1-552) (Homo sapiens (Human), UniProt O75116); assay: Z'-lyte kinase assay, ROCK2; assay type: biochemical; conditions: for inhibition at 0.5 µM: read-out: ROCK2 % inh (0.5 μM)
Protocol: (§1) Determination of compounds ROCK inhibitory activity in vitro (Z'lyte assay): recombinant ROCK1 (amino acids 1-535) and ROCK2 (amino acids 1-552) proteins were purchased from ThermoFisher Scientific. Compounds activities were measured by Z'-lyte kinase kit (ThermoFisher Scientific) and IC50s were calculated.
(§2) Compounds activities were measured by Z'-lyte kinase kit (ThermoFisher Scientific). […] IC50s were calculated using the GraphPad Prism software with kinase activities data that were collected from 9 points serial dilution of compounds treatment. The ROCK inhibition in A7R5 cells and NIH3T3 (Acta2-Luc) cells was performed as described above.
(§3) The percent inhibition rate was calculated by normalizing the kinase activity value obtained with compound treatment against DMSO control value and then applied to the equation, […]. IC50's were calculated using the nonlinear regression curve fit function of the GraphPad Prism software with kinase activities data measured with 9 points 2-fold serial dilution of compounds treatment.

[2] = target: recombinant ROCK1 (amino acids 1-535) (Homo sapiens (Human), UniProt Q13464); assay: Z'-lyte kinase assay, ROCK1; assay type: biochemical; conditions: for inhibition at 0.5 µM: read-out: ROCK1 % inh (0.5 μM)
Protocol: as §1, §2, §3

[3] = test system: ppMlc (T18/S19) levels in A7R5 cells; assay: A7R5 in-cell ELISA assay (ppMlc); assay type: cell-based, rat
Protocol: Determination of compounds ROCK inhibitory activity in A7R5 cells: rat aortic smooth muscle cell line A7R5 cells were maintained and treated in DMEM medium with 10% of fetal bovine serum. Cells were seeded with density of 5,000 cells/well in 96-well plates for 24 hours and subsequently treated 90 min with testing compounds. Cells were then fixed and processed according to the In-Cell ELISA Colorimetric Detection Kit manual (Thermo Scientific).
A7R5 cells were treated with 9 points 2 fold serial dilution of compounds and ppMlc (T18/S19) levels were determined in order to calculate the cellular IC50s of the compounds.
An A7R5 in-cell ELISA assay was performed to determine ROCK inhibition of test articles. A7R5 cells were treated with 9 points 2-fold serial dilution of compounds and ppMlc (T18/S19) levels were determined to calculate cellular IC50 values of the compounds. […] A7R5 cells were treated with 9 points 2-fold serial dilution of compounds and ppMlc (T18/S19) levels were determined to calculate cellular IC50 values of the compounds using the nonlinear regression curve fit function of the GraphPad Prism software.

[4] = test system: ACTA2-promoter-driven-luciferase in NIH3T3 cells; assay: NIH3T3 Acta2-promoter driven-luciferase assay; assay type: cell-based; conditions: Mus musculus, plus TGFβ1, 24 hr, read-out: NIH3T3, Acta2-luc, IC50
Protocol: NIH3T3 cells Acta2-promoter driven-luciferase assay: A NIH3T3 cell line stably expressing a luciferase reporter driven by the human ACTA2 gene promoter (−1000-1 bp) was established (NIH3T3-Acta2-luciferase). The cells were plated to confluence and treated with the test compounds plus TGFβ1 for 24 hr. Cells were then lysed and luciferase activity was measured using the LightSwitch luciferase kit from Active Motif.
ROCK inhibitors can be effectively rank ordered by ACTA2-promoter-driven-luciferase reporter cell assay. NIH3T3 cells stably expressing ACTA2-promoter-driven-luciferase were applied to measure ROCK compounds functional IC50's in cells. Cells were plated in 96 well plates to confluence and treated with 9 points serial dilution of compounds in combination with TGFβ1 for 24 hr. Luciferase activities were measured and compound's IC50's were calculated using the nonlinear regression curve fit function of the GraphPad Prism software. Compounds of the invention gave in cell IC50's under 200 nM, see FIG. 1c.

[5] = Rattus norvegicus, A7R5, A7R5 cells, Table 2, read-out: pMLC IC50 (nM) A7R5

recombinant ROCK1 (amino acids 1-535), sequence (Q13464 1-535): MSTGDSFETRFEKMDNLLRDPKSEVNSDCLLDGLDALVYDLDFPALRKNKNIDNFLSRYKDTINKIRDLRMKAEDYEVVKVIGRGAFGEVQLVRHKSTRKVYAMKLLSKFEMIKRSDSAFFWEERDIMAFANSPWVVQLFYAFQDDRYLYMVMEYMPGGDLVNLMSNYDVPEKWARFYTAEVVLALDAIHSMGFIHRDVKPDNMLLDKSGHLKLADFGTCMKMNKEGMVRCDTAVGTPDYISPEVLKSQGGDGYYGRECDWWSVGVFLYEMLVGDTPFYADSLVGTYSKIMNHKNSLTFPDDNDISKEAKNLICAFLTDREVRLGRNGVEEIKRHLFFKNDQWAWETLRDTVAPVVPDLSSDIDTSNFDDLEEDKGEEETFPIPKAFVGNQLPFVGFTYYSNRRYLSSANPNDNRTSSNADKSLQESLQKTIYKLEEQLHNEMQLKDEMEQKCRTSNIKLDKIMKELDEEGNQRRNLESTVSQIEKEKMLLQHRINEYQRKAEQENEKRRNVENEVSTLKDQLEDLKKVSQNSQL
recombinant ROCK2 (amino acids 1-552), sequence (O75116 1-552): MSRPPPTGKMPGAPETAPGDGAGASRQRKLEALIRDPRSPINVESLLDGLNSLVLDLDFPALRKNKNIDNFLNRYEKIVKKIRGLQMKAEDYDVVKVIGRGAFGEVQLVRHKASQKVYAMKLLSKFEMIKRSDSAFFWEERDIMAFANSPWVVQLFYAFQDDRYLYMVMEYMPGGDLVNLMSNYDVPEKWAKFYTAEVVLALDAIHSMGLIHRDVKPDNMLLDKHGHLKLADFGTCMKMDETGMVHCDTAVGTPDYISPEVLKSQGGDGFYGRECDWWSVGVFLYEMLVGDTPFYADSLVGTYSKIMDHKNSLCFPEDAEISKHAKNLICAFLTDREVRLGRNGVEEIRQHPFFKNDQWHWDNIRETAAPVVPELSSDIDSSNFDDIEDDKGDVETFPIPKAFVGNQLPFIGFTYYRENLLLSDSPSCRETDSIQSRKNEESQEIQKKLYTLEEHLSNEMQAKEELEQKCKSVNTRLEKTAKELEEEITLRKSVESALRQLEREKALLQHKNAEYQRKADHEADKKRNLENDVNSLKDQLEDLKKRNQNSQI

| SMILES | IC50 [1] | inhibition at 0.5 µM [1] | inhibition at 0.5 µM [2] | IC50 [3, 5] | IC50 [4] | IC50 [2] | IC50 ([3]; A7R5 cells, Table 2, read-out: pMLC IC50 (nM) A7R5) | IC50 ([3]; Rattus norvegicus, A7R5, A7R5 cells, ppMlc (T18/S19), in-cell ELISA, read-out: ppMlc IC50) |
| --- | --- | --- | --- | --- | --- | --- | --- | --- |
| CNC(C(=O)Nc1ccc(-c2cn[nH]c2)cc1)c1cccc(F)c1 (stereo not drawn) [Example 18, N-(4-(1H-pyrazol-4-yl)phenyl)-2-(3-fluorophenyl)-2-(methylamino)acetamide] | 10 nM | 89% | 92% | 504 nM | 464 nM | – | – | – |
| COc1cccc([C@@H](NCCN(C)C)C(=O)Nc2ccc(-c3cn[nH]c3)cc2)c1 [Example 61, (R)—N-(4-(1H-pyrazol-4-yl)phenyl)-2-((2-(dimethylamino)ethyl)amino)-2-(3-methoxyphenyl)acetamide] | 2.9 nM | – | – | 35 nM | 48 nM | 7.7 nM | – | – |
| CNCCN[C@@H](C(=O)Nc1ccc(-c2cn[nH]c2)cc1)c1cccc(OC)c1 [Example 62, (R)—N-(4-(1H-pyrazol-4-yl)phenyl)-2-(3-methoxyphenyl)-2-((2-(methylamino)ethyl)amino)acetamide] | 1.8 nM | – | – | 58 nM | 108 nM | 3 nM | – | – |
| CNC(C(=O)Nc1cc(OC)c(-c2cn[nH]c2)cc1F)c1cccc(OC)c1 (stereo not drawn) [Example 66, N-(2-fluoro-5-methoxy-4-(1H-pyrazol-4-yl)phenyl)-2-(3-methoxyphenyl)-2-(methylamino)acetamide] | 18 nM | – | – | 332 nM | 396 nM | 56 nM | – | – |
| CNC(C(=O)Nc1ccc(-c2cn[nH]c2)cc1)c1ccc2c(C)n[nH]c2c1 (stereo not drawn) [Example 33, N-(4-(1H-pyrazol-4-yl)phenyl)-2-(3-methyl-1H-indazol-6-yl)-2-(methylamino)acetamide] | 29 nM | – | – | 913 nM | 1480 nM | 85 nM | – | – |
| CNCCN[C@H](C(=O)Nc1ccc(-c2cn[nH]c2)cc1)c1cccc(OC)c1 [Example 63, (S)—N-(4-(1H-pyrazol-4-yl)phenyl)-2-(3-methoxyphenyl)-2-((2-(methylamino)ethyl)amino)acetamide] | 22 nM | – | – | 548 nM | 633 nM | 81 nM | – | – |
| COCCN[C@@H](C(=O)Nc1ccc(-c2cn[nH]c2)cc1)c1cccc(OC)c1 [Example 58, (R)—N-(4-(1H-pyrazol-4-yl)phenyl)-2-((2-methoxyethyl)amino)-2-(3-methoxyphenyl)acetamide] | 12 nM | – | – | 484 nM | 74 nM | 57 nM | – | – |
| COCCN[C@H](C(=O)Nc1ccc(-c2cn[nH]c2)cc1)c1cccc(OC)c1 [Example 59, (S)—N-(4-(1H-pyrazol-4-yl)phenyl)-2-((2-methoxyethyl)amino)-2-(3-methoxyphenyl)acetamide] | 239 nM | – | – | 4170 nM | > 5000 nM | 759 nM | 5550 nM | – |
| CNC(C(=O)Nc1ccc(-c2cn[nH]c2)cc1)c1cccc(OC(F)F)c1 (stereo not drawn) [Example 24, N-(4-(1H-pyrazol-4-yl)phenyl)-2-(3-(difluoromethoxy)phenyl)-2-(methylamino)acetamide] | 22 nM | 97% | – | 334 nM | 1710 nM | 88 nM | – | – |
| CNC(C(=O)Nc1ccc(-c2cn[nH]c2)cc1)c1ccccc1OC (stereo not drawn) [Example 8, N-(4-(1H-pyrazol-4-yl)phenyl)-2-(2-methoxyphenyl)-2-(methylamino)acetamide] | 3 nM | – | – | 517 nM | – | 12 nM | – | 517 nM |
| CNC(C(=O)Nc1ccc(-c2cn[nH]c2)cc1)c1cccc(Cl)c1 (stereo not drawn) [Example 20, N-(4-(1H-pyrazol-4-yl)phenyl)-2-(3-chlorophenyl)-2-(methylamino)acetamide] | 1.7 nM | 94% | 98% | 263 nM | 157 nM | – | – | – |
| CN[C@@H](C(=O)Nc1ccc(-c2cn[nH]c2)cc1)c1cccc(OC)c1 [Example 3, (R)—N-(4-(1H-pyrazol-4-yl)phenyl)-2-(3-methoxyphenyl)-2-(methylamino)acetamide] | 12 nM | – | – | 222 nM | 157 nM | – | – | – |
| CCNC(C(=O)Nc1ccc(-c2cn[nH]c2)cc1)c1ccc(C)cc1 (stereo not drawn) [Example 11, N-(4-(1H-pyrazol-4-yl)phenyl)-2-(ethylamino)-2-(p-tolyl)acetamide] | 4 nM | – | – | 69 nM | 106 nM | – | – | – |
| COc1cccc([C@H](NCCN(C)C)C(=O)Nc2ccc(-c3cn[nH]c3)cc2)c1 [Example 60, (S)—N-(4-(1H-pyrazol-4-yl)phenyl)-2-((2-(dimethylamino)ethyl)amino)-2-(3-methoxyphenyl)acetamide] | 98 nM | – | – | 695 nM | 1410 nM | 258 nM | – | – |
| CNC(=O)CNC(C(=O)Nc1ccc(-c2cn[nH]c2)cc1)c1cccc(OC)c1 (stereo not drawn) [Example 44, N-(4-(1H-pyrazol-4-yl)phenyl)-2-(3-methoxyphenyl)-2-((2-(methylamino)-2-oxoethyl)amino)acetamide] | 42 nM | – | – | 2020 nM | 2230 nM | – | – | – |
| CNC(C(=O)Nc1ccc(-c2cn[nH]c2)cc1)c1ccc(F)cc1 (stereo not drawn) [Example 19, N-(4-(1H-pyrazol-4-yl)phenyl)-2-(4-fluorophenyl)-2-(methylamino)acetamide] | 4.8 nM | 90% | 96% | 355 nM | 190 nM | – | – | – |
| CNC(C(=O)Nc1ccc(-c2cn[nH]c2)cc1)c1cccc(C(=O)OC)c1 (stereo not drawn) [Example 30, Methyl 3-(2-((4-(1H-pyrazol-4-yl)phenyl)amino)-1-(methylamino)-2-oxoethyl)benzoate] | 18 nM | – | – | 247 nM | > 5000 nM | – | – | – |
| COc1cccc(C(NCCCN(C)C)C(=O)Nc2ccc(-c3cn[nH]c3)cc2)c1 (stereo not drawn) [Example 38, N-(4-(1H-pyrazol-4-yl)phenyl)-2-((3-(dimethylamino)propyl)amino)-2-(3-methoxyphenyl)acetamide] | 8.7 nM | – | – | 338 nM | 1620 nM | – | – | – |

Source: patent publication US11479533B2, “Inhibitors of Rho associated coiled-coil containing protein kinase” (KADMON CORPORATION, LLC, priority 2017, dated 2022)
